Results reported in patent publication US6503881B2 (priority 1996, dated 2003).
Read-outs that look alike come from different tables or passages of the source.

System: bacterial isolates
Settings: for FIC: Piperacillin + peptide

In the case of W R I W K P K W R L P K W [MBI 11D18CN], the “Gentamicin MIC + Peptide” value (A. baumannii ABI001) was 16 µg/mL, the “Peptide MIC + Gentamicin” value (A. baumannii ABI001) was 0.5 µg/mL and the “Peptide MIC + Tobramycin” value (A. baumannii ABI001) was 4 µg/mL. The “Peptide MIC Alone” value (A. baumannii ABI001) was 64 µg/mL, the “Tobramycin MIC + Peptide” value (A. baumannii ABI001) was 4 µg/mL and the “Gentamicin MIC + Peptide” value (A. baumannii ABI002) was 8 µg/mL. For the same substance, the “Peptide MIC + Gentamicin” value (A. baumannii ABI002) was 2 µg/mL, the “Peptide MIC + Tobramycin” value (A. baumannii ABI002) was 0.5 µg/mL and the “Peptide MIC Alone” value (A. baumannii ABI002) was 16 µg/mL. The “Tobramycin MIC + Peptide” value (A. baumannii ABI002) was 4 µg/mL, the “Peptide MIC + Piperacillin” value (A. calcoaceticus 3) was 8 µg/mL and the “Peptide MIC Alone” value (A. calcoaceticus 3) was 32 µg/mL. For the same substance, the “Piperacillin MIC + Peptide” value (A. calcoaceticus 3) was 8 µg/mL, the “Peptide MIC + Piperacillin” value (E. cloacae 9) was 16 µg/mL and the “Peptide MIC Alone” value (E. cloacae 9) was 64 µg/mL. The “Piperacillin MIC + Peptide” value (E. cloacae 9) was 16 µg/mL, the “Peptide MIC + Piperacillin” value (E. cloacae 10) was 8 µg/mL and the “Peptide MIC Alone” value (E. cloacae 10) was 32 µg/mL. The “Piperacillin MIC + Peptide” value (E. cloacae 10) was 64 µg/mL, the “Gentamicin MIC + Peptide” value (E. coli ECO006) was 16 µg/mL and the “Peptide MIC + Gentamicin” value (E. coli ECO006) was 0.125 µg/mL. For the same substance, the “Mupirocin MIC + Peptide” value (E. coli SBECO1) was 30 µg/mL, the “Peptide MIC + Mupirocin” value (E. coli SBECO1) was 0.125 µg/mL and the “Peptide MIC Alone” value (E. coli SBECO1 (Mupirocin section)) was 2 µg/mL. The “Mupirocin MIC + Peptide” value (E. coli SBECO2) was 30 µg/mL, the “Peptide MIC + Mupirocin” value (E. coli SBECO2) was 0.5 µg/mL and the “Peptide MIC Alone” value (E. coli SBECO2 (Mupirocin section)) was 16 µg/mL. The “Peptide MIC + Vancomycin” value (E. faecalis EFS001) was 2 µg/mL, the “Peptide MIC Alone” value (E. faecalis EFS001) was 8 µg/mL and the “Vancomycin MIC + Peptide” value (E. faecalis EFS001) was 0.125 µg/mL. The “Peptide MIC + Vancomycin” value (E. faecalis EFS004) was 2 µg/mL, the “Peptide MIC Alone” value (E. faecalis EFS004) was 8 µg/mL and the “Vancomycin MIC + Peptide” value (E. faecalis EFS004) was 0.5 µg/mL. The “Gentamicin MIC + Peptide” value (E. faecalis EFS008) was 8 µg/mL, the “Peptide MIC + Gentamicin” value (E. faecalis EFS008) was 0.125 µg/mL and the “Peptide MIC + Vancomycin” value (E. faecalis EFS011) was 0.125 µg/mL. For the same substance, the “Peptide MIC Alone” value (E. faecalis EFS011) was 64 µg/mL, the “Vancomycin MIC + Peptide” value (E. faecalis EFS011) was 32 µg/mL and the “Peptide MIC + Vancomycin” value (E. faecalis EFS012) was 2 µg/mL. For the same substance, the “Peptide MIC Alone” value (E. faecalis EFS012) was 16 µg/mL, the “Vancomycin MIC + Peptide” value (E. faecalis EFS012) was 64 µg/mL and the “Peptide MIC + Vancomycin” value (E. faecalis EFS014) was 0.5 µg/mL. The “Peptide MIC Alone” value (E. faecalis EFS014) was 4 µg/mL, the “Vancomycin MIC + Peptide” value (E. faecalis EFS014) was 4 µg/mL and the “Gentamicin MIC + Peptide” value (E. faecium EFM004) was 8 µg/mL. The “Peptide MIC + Gentamicin” value (E. faecium EFM004) was 0.125 µg/mL, the “Peptide MIC + Vancomycin” value (E. faecium EFM004) was 2 µg/mL and the “Peptide MIC Alone” value (E. faecium EFM004) was 8 µg/mL. The “Vancomycin MIC + Peptide” value (E. faecium EFM004) was 64 µg/mL, the “Peptide MIC + Vancomycin” value (E. faecium EFM009) was 0.125 µg/mL and the “Peptide MIC Alone” value (E. faecium EFM009) was 8 µg/mL. The “Vancomycin MIC + Peptide” value (E. faecium EFM009) was 32 µg/mL, the “Peptide MIC + Vancomycin” value (E. faecium EFM010) was 0.25 µg/mL and the “Peptide MIC Alone” value (E. faecium EFM010) was 8 µg/mL. For the same substance, the “Vancomycin MIC + Peptide” value (E. faecium EFM010) was 64 µg/mL, the “Peptide MIC + Vancomycin” value (E. faecium EFM011) was 2 µg/mL and the “Peptide MIC Alone” value (E. faecium EFM011) was 8 µg/mL. The “Vancomycin MIC + Peptide” value (E. faecium EFM011) was 64 µg/mL, the “Peptide MIC + Piperacillin” value (H. influenzae 3) was 8 µg/mL and the “Peptide MIC Alone” value (H. influenzae 3) was >128 µg/mL. For the same substance, the “Piperacillin MIC + Peptide” value (H. influenzae 3) was 0.25 µg/mL, the “Peptide MIC + Piperacillin” value (H. influenzae SB1) was 4 µg/mL and the “Peptide MIC Alone” value (H. influenzae SB1) was >128 µg/mL. The “Piperacillin MIC + Peptide” value (H. influenzae SB1) was 0.25 µg/mL, the “Gentamicin MIC + Peptide” value (K. pneumonia KP020) was 32 µg/mL and the “Peptide MIC + Gentamicin” value (K. pneumonia KP020) was 0.125 µg/mL. For the same substance, the “Peptide MIC Alone” value (K. pneumonia KP020 (Gentamicin section)) was 32 µg/mL, the “Peptide MIC + Piperacillin” value (P. aeruginosa 23) was 8 µg/mL and the “Peptide MIC Alone” value (P. aeruginosa 23) was 64 µg/mL. The “Piperacillin MIC + Peptide” value (P. aeruginosa 23) was 32 µg/mL, the “Peptide MIC + Piperacillin” value (P. aeruginosa 41) was 16 µg/mL and the “Peptide MIC Alone” value (P. aeruginosa 41) was >128 µg/mL. For the same substance, the “Piperacillin MIC + Peptide” value (P. aeruginosa 41) was 32 µg/mL, the “Mupirocin MIC + Peptide” value (P. aeruginosa PA4) was 30 µg/mL and the “Peptide MIC + Mupirocin” value (P. aeruginosa PA4) was 64 µg/mL. For the same substance, the “Peptide MIC Alone” value (P. aeruginosa PA4 (Mupirocin section)) was 128 µg/mL, the “Gentamicin MIC + Peptide” value (P. aeruginosa PA022) was 8 µg/mL and the “Peptide MIC + Gentamicin” value (P. aeruginosa PA022) was 0.125 µg/mL. The “Peptide MIC Alone” value (P. aeruginosa PA022 (Gentamicin section)) was 8 µg/mL, the “Ciprofloxacin MIC + Peptide” value (P. aeruginosa PA24) was 4 µg/mL and the “Peptide MI + Ciprofloxacin” value (P. aeruginosa PA24) was 16 µg/mL. The “Peptide MI Alone” value (P. aeruginosa PA24 (Ciprofloxacin section)) was >128 µg/mL, the “Gentamicin MIC + Peptide” value (P. aeruginosa PA041) was 0.125 µg/mL and the “Peptide MIC + Gentamicin” value (P. aeruginosa PA041) was 8 µg/mL. For the same substance, the “Peptide MIC Alone” value (P. aeruginosa PA041 (Gentamicin section)) was 64 µg/mL, the “Ciprofloxacin MIC + Peptide” value (P. aeruginosa PA77) was 0.5 µg/mL and the “Peptide MI + Ciprofloxacin” value (P. aeruginosa PA77) was 32 µg/mL. For the same substance, the “Peptide MI Alone” value (P. aeruginosa PA77 (Ciprofloxacin section)) was 128 µg/mL, the “Mupirocin MIC + Peptide” value (P. aeruginosa SBPA1) was 100 µg/mL and the “Peptide MIC + Mupirocin” value (P. aeruginosa SBPA1) was 32 µg/mL. For the same substance, the “Peptide MIC Alone” value (P. aeruginosa SBPA1 (Mupirocin section)) was 128 µg/mL, the FIC (A. calcoaceticus 3) was 0.38 and the FIC (E. cloacae 9) was 0.31.
